Source: the NIST ThermoML archive (doi:10.1021/je900227j)

Details: 101.33 kPa, Liquid; for mass density: Pycnometric method; for speed of sound: Pulse-echo method

CCCCCCCCCCCBr [1-bromoundecane]
Details | mass density [kg/m3] | speed of sound [m/s]
273.15 K | 1067.26 | –
273.42 K | – | 1307
283.2 K | 1058.34 | –
293.2 K | 1049.49 | –
298.15 K | 1045.03 | –
303.22 K | – | 1209
323.19 K | – | 1145.6
323.2 K | 1023.21 | –
343.2 K | 1005.75 | –
353.14 K | – | 1054.4
363.2 K | 987.93 | –
383.14 K | – | 966.59
383.2 K | 969.56 | –
403.13 K | – | 909.71
403.25 K | 951.27 | –
423.13 K | – | 854.45

CCCCCCCCCCBr [1-bromodecane]
Details | mass density [kg/m3] | speed of sound [m/s]
253.4 K | 1105.66 | –
263.3 K | 1096.34 | –
273.25 K | 1087.32 | –
283.2 K | 1078.06 | –
293.15 K | 1069.01 | –
298.15 K | 1064.47 | –
323.15 K | 1041.72 | –
323.2 K | – | 1123.8
343.15 K | 1023.01 | –
353.19 K | – | 1032.2
363.15 K | 1004.33 | –
383.15 K | 985.41 | –
383.22 K | – | 944.49
403.23 K | – | 888.22
403.25 K | 966.27 | –
423.27 K | – | 833.21
423.3 K | 946.49 | –

CCCBr [1-bromopropane]
Details | mass density [kg/m3] | speed of sound [m/s]
243.15 K | 1431.07 | –
243.76 K | – | 1144.8
253.15 K | 1415.43 | –
263.15 K | 1400.28 | –
263.38 K | – | 1075
273.15 K | 1385.33 | –
273.31 K | – | 1040.1
283.15 K | 1369.4 | –
283.26 K | – | 1005.5
293.15 K | 1352.89 | –
293.22 K | – | 971.22
298.15 K | 1344.48 | –
298.21 K | – | 954.05
323.21 K | – | 870.16
343.21 K | – | 804.19
363.23 K | – | 739.38
383.47 K | – | 674.94

CCCCCCCCCCCCBr [1-bromododecane]
Details | mass density [kg/m3] | speed of sound [m/s]
273.15 K | 1056.54 | –
273.32 K | – | 1323.5
283.15 K | 1048.47 | –
293.15 K | 1039.81 | –
303.15 K | 1031.27 | –
303.21 K | – | 1224.8
323.15 K | 1013.99 | –
323.18 K | – | 1161.2
343.15 K | 996.24 | –
353.15 K | – | 1069.7
363.15 K | 979.02 | –
383.15 K | 961.54 | –
383.17 K | – | 982.95
393.15 K | 952.43 | –
403.19 K | – | 926.37
413.15 K | 933.49 | –
423.14 K | – | 871.74
423.15 K | 923.65 | –

CCCCCBr [1-bromopentane]
Details | mass density [kg/m3] | speed of sound [m/s]
243.73 K | – | 1240
253.15 K | 1260.65 | –
263.15 K | 1249.88 | –
273.32 K | – | 1137.5
283.15 K | 1226.85 | –
293.15 K | 1214.88 | –
303.15 K | 1202.6 | –
303.22 K | – | 1037.1
323.15 K | 1177.13 | –
323.17 K | – | 972.37
343.15 K | 1150.97 | –
353.18 K | – | 877.57
363.15 K | 1124.69 | –
383.15 K | 1097.39 | –
383.23 K | – | 785.49
393.15 K | 1083.35 | –
403.28 K | – | 725.54
423.48 K | – | 666.58

CCCCCCBr [1-bromohexane]
Details | mass density [kg/m3] | speed of sound [m/s]
243.6 K | – | 1273.8
253.15 K | 1217.95 | –
263.15 K | 1206.62 | –
273.15 K | 1195.28 | –
273.31 K | – | 1172.8
283.15 K | 1183.82 | –
298.15 K | 1166.83 | –
303.2 K | – | 1073.6
323.15 K | 1137.27 | –
323.2 K | – | 1009.3
343.15 K | 1113.66 | –
353.16 K | – | 916.03
383.15 K | 1066.11 | –
383.19 K | – | 826.35
403.15 K | 1040.91 | –
403.25 K | – | 767.47
423.23 K | – | 709.98

CCCCCCCBr [1-bromoheptane]
Details | mass density [kg/m3] | speed of sound [m/s]
243.74 K | – | 1308.3
253.15 K | 1180.21 | –
263.15 K | 1169.57 | –
273.15 K | 1159.15 | –
273.33 K | – | 1207.2
283.15 K | 1148.71 | –
298.15 K | 1132.91 | –
303.19 K | – | 1108.7
323.14 K | – | 1045.1
323.15 K | 1105.97 | –
343.15 K | 1084.54 | –
353.14 K | – | 952.86
363.15 K | 1061.75 | –
383.15 K | 1038.55 | –
383.17 K | – | 863.47
393.15 K | 1026.63 | –
423.22 K | – | 748.09

CCCCCCCCCBr [1-bromononane]
Details | mass density [kg/m3] | speed of sound [m/s]
253.15 K | 1124.52 | –
253.46 K | – | 1329.9
263.2 K | 1115.2 | –
273.15 K | 1105.5 | –
273.29 K | – | 1262.7
283.15 K | 1096.09 | –
293.15 K | 1086.58 | –
298.15 K | 1082.2 | –
303.15 K | – | 1165.1
323.14 K | – | 1101.1
323.15 K | 1058.34 | –
343.15 K | 1038.92 | –
353.1 K | – | 1009.9
363.15 K | 1019.42 | –
383.05 K | – | 921.46
383.15 K | 999.36 | –
393.15 K | 989.17 | –
402.98 K | – | 864.42
413.15 K | 968.48 | –
422.72 K | – | 808.79

CCCCBr [1-bromobutane]
Details | mass density [kg/m3] | speed of sound [m/s]
243.38 K | – | 1195.3
253.15 K | 1326.49 | –
263.15 K | 1313.8 | –
273.15 K | 1300.5 | –
273.26 K | – | 1091
283.15 K | 1286.37 | –
293.15 K | 1272.7 | –
298.15 K | 1265.66 | –
303.15 K | 1258.55 | –
323.15 K | 1229.53 | –
323.22 K | – | 925.99
343.22 K | – | 861.16
363.23 K | – | 797.6
383.31 K | – | 735.21

CCCCCCCCBr [1-bromooctane]
Details | mass density [kg/m3] | speed of sound [m/s]
243.61 K | – | 1336.3
253.15 K | 1151.11 | –
263.15 K | 1140.86 | –
273.15 K | 1131.22 | –
273.28 K | – | 1235.4
283.15 K | 1121.21 | –
293.15 K | 1111.01 | –
303.15 K | 1100.89 | –
303.16 K | – | 1137.2
323.02 K | – | 1073.8
323.15 K | 1080.6 | –
343.15 K | 1060.45 | –
352.91 K | – | 981.92
363.15 K | 1039.47 | –
382.88 K | – | 892.87
383.15 K | 1018.75 | –
393.15 K | 1008.38 | –
402.55 K | – | 835.51
423.04 K | – | 778.72
